Where two headings read alike, the source gives them in different places.
Biological target: T1, mutant B-RAF (Homo sapiens, UniProt P15056, V600E)
T1 construct: purchased Upstate (Charlottesville, Va.)
Assay: RAF biochemical assay (MEK-1 phosphorylation, anti-phospho MEK1/2 detection)
Details: for IC50: read-out: Mutant B-RAF IC50; for inhibition at 10 µM: read-out: Mutant B-RAF % inhibition
Method in brief: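 Detection is by ELISA: after a 30 min room-temperature reaction, plate-captured GST-MEK-1 is probed with anti-phospho MEK1/2, then an AP-tagged secondary antibody with fluorescent Attophos read-out.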

T1 sequence (P15056 whole entry V600E): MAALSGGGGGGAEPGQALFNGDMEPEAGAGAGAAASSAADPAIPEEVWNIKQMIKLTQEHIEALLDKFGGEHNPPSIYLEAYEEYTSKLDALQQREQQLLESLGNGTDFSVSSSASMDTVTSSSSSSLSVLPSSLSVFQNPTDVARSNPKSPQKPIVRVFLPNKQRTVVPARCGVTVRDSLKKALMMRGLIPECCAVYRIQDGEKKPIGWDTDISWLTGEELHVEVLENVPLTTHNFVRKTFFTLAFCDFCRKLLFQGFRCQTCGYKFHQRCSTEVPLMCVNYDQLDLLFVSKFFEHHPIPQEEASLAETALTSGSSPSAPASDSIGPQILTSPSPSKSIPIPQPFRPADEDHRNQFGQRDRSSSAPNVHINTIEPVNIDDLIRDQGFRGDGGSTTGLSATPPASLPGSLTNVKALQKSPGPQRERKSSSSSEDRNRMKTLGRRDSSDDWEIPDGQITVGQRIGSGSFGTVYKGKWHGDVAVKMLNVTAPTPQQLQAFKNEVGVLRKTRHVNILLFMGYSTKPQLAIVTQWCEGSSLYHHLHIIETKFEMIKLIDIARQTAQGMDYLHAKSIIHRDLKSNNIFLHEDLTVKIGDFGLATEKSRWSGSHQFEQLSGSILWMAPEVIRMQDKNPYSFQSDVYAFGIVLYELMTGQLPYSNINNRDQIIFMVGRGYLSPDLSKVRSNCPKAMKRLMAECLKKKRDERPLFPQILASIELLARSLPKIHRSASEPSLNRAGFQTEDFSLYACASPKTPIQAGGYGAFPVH

Structure (SMILES)	IC50	other results
O=S(=O)(c1ccc(Cl)cc1)N1CCC[C@@H](Nc2nccc(-c3c(-c4ccc(Cl)c(O)c4)nc4sccn34)n2)C1 [Example 101, 2-chloro-5-{5-[2-({(3R)-1-[(4-chlorophenyl)sulfonyl]piperidin-3-yl}amino)pyrimidin-4-yl]imidazo[2,1-b][1,3]thiazol-6-yl}phenol]	11 nM	–
COc1ccccc1-c1nc2sccn2c1-c1ccnc(N[C@@H]2CCCNC2)n1 [Example 102, 4-[6-(2-methoxyphenyl)imidazo[2,1-b][1,3]thiazol-5-yl]-N-[(3R)-piperidin-3-yl]pyrimidin-2-amine]	1280 nM	–
COc1cccc(-c2nc3occn3c2-c2ccnc(N[C@@H]3CCCN(S(=O)(=O)c4ccc(Cl)cc4)C3)n2)c1 [Example 103, N-{(3R)-1-[(4-chlorophenyl)sulfonyl]piperidin-3-yl}-4-[6-(3-methoxyphenyl)imidazo[2,1-b][1,3]oxazol-5-yl]pyrimidin-2-amine]	–	inhibition at 10 µM (@ 10 uM): 48%
COc1ccc(-c2nc3sccn3c2-c2ccnc(N[C@@H]3CCCNC3)n2)cc1 [Example 106, 4-[6-(4-methoxyphenyl)imidazo[2,1-b][1,3]thiazol-5-yl]-N-[(3R)-piperidin-3-yl]pyrimidin-2-amine]	–	inhibition at 10 µM (@ 10 uM): 27%
O=S(=O)(c1ccc(Cl)cc1)N1CCC[C@@H](Nc2nccc(-c3c(-c4ccccc4O)nc4sccn34)n2)C1 [Example 107, 2-{5-[2-({(3R)-1-[(4-chlorophenyl)sulfonyl]piperidin-3-yl}amino)pyrimidin-4-yl]imidazo[2,1-b][1,3]thiazol-6-yl}phenol]	33 nM	–
COc1cccc(-c2nc3sccn3c2-c2ccnc(N[C@@H]3CCCN(C(=O)c4ccc(F)cc4)C3)n2)c1 [Example 108, N-[(3R)-1-(4-fluorobenzoyl)piperidin-3-yl]-4-[6-(3-methoxyphenyl)imi-dazo[2,1-b][1,3]thiazol-5-yl]pyrimidin-2-amine]	–	inhibition at 10 µM: 73%
COc1cccc(-c2nc3sccn3c2-c2ccnc(N[C@@H]3CCCN(C(=O)CC(C)C)C3)n2)c1 [Example 109, 4-[6-(3-methoxyphenyl)imidazo[2,1-b][1,3]thiazol-5-yl]-N-[(3R)-1-(3-methylbutanoyl)piperidin-3-yl]pyrimidin-2-amine]	> 3000 nM	–
O=S(=O)(c1ccc(Cl)cc1)N1CCC[C@@H](Nc2nccc(-c3c(-c4ccc(O)cc4)nc4sccn34)n2)C1 [Example 110, 4-{5-[2-({(3R)-1-[(4-chlorophenyl)sulfonyl]piperidin-3-yl}amino)pyrimidin-4-yl]imidazo[2,1-b][1,3]thiazol-6-yl}phenol]	> 5000 nM	–
N#Cc1ccc(S(=O)(=O)N2CCC[C@@H](Nc3nccc(-c4c(-c5cccc(O)c5)nc5sccn45)n3)C2)cc1 [Example 111, 4-{[(3R)-3-({4-[6-(3-hydroxyphenyl)imidazo[2,1-b][1,3]thiazol-5-yl]pyrimidin-2-yl}amino)piperidin-1-yl]sulfonyl}benzonitrile]	28 nM	–
O=C(c1ccc(F)cc1)N1CCC[C@@H](Nc2nccc(-c3c(-c4cccc(O)c4)nc4sccn34)n2)C1 [Example 113, 3-[5-(2-{[(3R)-1-(4-fluorobenzoyl)piperidin-3-yl]amino}pyrimidin-4-yl)imidazo[2,1-b][1,3]thiazol-6-yl}phenol]	3840 nM	–
O=S(=O)(c1ccc(Cl)cc1)N1CCC[C@@H](Nc2nccc(-c3c(-c4ccc(F)c(F)c4)nc4sccn34)n2)C1 [Example 114, N-{(3R)-1-[(4-chlorophenyl)sulfonyl]piperidin-3-yl}-4-[6-(3,4-difluorophenyl)imidazo[2,1-b][1,3]thiazol-5-yl]pyrimidin-2-amine]	–	inhibition at 3 µM (@ 3 uM): 48%
COc1cccc(-c2nc3occn3c2-c2ccnc(N[C@@H]3CCCNC3)n2)c1 [Example 115, 4-[6-(3-methoxyphenyl)imidazo[2,1-b][1,3]oxazol-5-yl]-N-[(3R)-piperidin-3-yl]pyrimidin-2-amine]	> 10000 nM	–
CC(C)CC(=O)N1CCC[C@@H](Nc2nccc(-c3c(-c4cccc(O)c4)nc4sccn34)n2)C1 [Example 116, 3-[5-(2-{[(3R)-1-(3-methylbutanoyl)piperidin-3-yl]amino}pyrimidin-4-yl)imidazo[2,1-b][1,3]thiazol-6-yl]phenol]	–	inhibition at 10 µM (@ 10 uM): 52%
O=C(c1ccncc1)N1CCC[C@@H](Nc2nccc(-c3c(-c4cccc(O)c4)nc4sccn34)n2)C1 [Example 117, 3-[5-(2-{[(3R)-1-isonicotinoylpiperidin-3-yl]amino}pyrimidin-4-yl)imidazo[2,1-b][1,3]thiazol-6-yl]phenol]	328 nM	–
COc1cccc(-c2nc3sccn3c2-c2ccnc(N[C@@H]3CCCN(S(=O)(=O)c4ccc(CCC(=O)O)cc4)C3)n2)c1 [Example 118, 3-(4-{[(3R)-3-({4-[6-(3-methoxyphenyl)imidazo[2,1-b][1,3]thiazol-5-yl]pyrimidin-2-yl}amino)piperidin-1-yl]sulfonyl}phenyl)propanoic acid]	229 nM	–
COc1cccc(-c2nc3sccn3c2-c2ccnc(N[C@@H]3CCCN(S(=O)(=O)c4ccc(C(=O)O)cc4)C3)n2)c1 [Example 119, 4-{[(3R)-3-({4-[6-(3-methoxyphenyl)imidazo(2,1-b][1,3]thiazol-5-yl]pyrimidin-2-yl}amino)piperidin-1-yl]sulfonyl}benzoic acid]	92 nM	–
O=[N+]([O-])c1cccc(-c2nc3sccn3c2-c2ccnc(N[C@@H]3CCCN(S(=O)(=O)c4ccc(Cl)cc4)C3)n2)c1 [Example 120, N-{(3R)-1-[(4-chlorophenyl)sulfonyl]piperidin-3-yl}-4-[6-(3-nitrophenyl)imidazo[2,1-b][1,3]thiazol-5-yl]pyrimidin-2-amine]	–	inhibition at 10 µM (@ 10 uM): 55%
Nc1cccc(-c2nc3sccn3c2-c2ccnc(N[C@@H]3CCCN(S(=O)(=O)c4ccc(Cl)cc4)C3)n2)c1 [Example 122, 4-[6-(3-aminophenyl)imidazo[2,1-b][1,3]thiazol-5-yl]-N-{(3R)-1-[(4-chlorophenyl)sulfonyl]piper-idin-3-yl}pyrimidin-2-amine]	429 nM	–
CC(=O)Nc1cccc(-c2nc3sccn3c2-c2ccnc(N[C@@H]3CCCN(S(=O)(=O)c4ccc(Cl)cc4)C3)n2)c1 [Example 123, N-(3-{5-[2-({(3R)-1-[(4-chlorophenyl)sulfonyl]piperidin-3-yl}amino)pyrimidin-4-yl]imidazo[2,1-b][1,3]thiazol-6-yl}phenyl)acetamide]	215 nM	–
NCC(=O)Nc1cccc(-c2nc3sccn3c2-c2ccnc(N[C@@H]3CCCN(S(=O)(=O)c4ccc(Cl)cc4)C3)n2)c1 [Example 124, N~1~-(3-{5-[2-({(3R)-1-[(4-chlorophenyl)sulfonyl]piperidin-3-yl}amino)pyrimidin-4-yl]imidazo[2,1-b][1,3]thiazol-6-yl}phenyl)glycinamide]	2960 nM	–
N#Cc1cccc(-c2nc3sccn3c2-c2ccnc(N[C@@H]3CCCNC3)n2)c1 [Example 125, 3-(5-{2-[(3R)-piperidin-3-ylamino]pyrimidin-4-yl}imidazo[2,1-b][1,3]thiazol-6-yl)benzonitrile]	–	inhibition at 10 µM (@ 10 uM): 19%
N#Cc1cccc(-c2nc3sccn3c2-c2ccnc(N[C@@H]3CCCN(S(=O)(=O)c4ccc(Cl)cc4)C3)n2)c1 [Example 126, 3-{5-[2-({(3R)-1-[(4-chlorophenyl)sulfonyl]piperidin-3-yl}amino)pyrimidin-4-yl]imidazo[2,1-b][1,3]thiazol-6-yl}benzonitrile]	710 nM	–
O=C(O)c1ccc(-c2nc3sccn3c2-c2ccnc(N[C@@H]3CCCN(S(=O)(=O)c4ccc(Cl)cc4)C3)n2)cc1 [Example 127, 4-{5-[2-({(3R)-1-[(4-chlorophenyl)sulfonyl]piperidin-3-yl}amino)pyrimidin-4-yl]imidazo[2,1-b][1,3]thiazol-6-yl}benzoic acid]	> 3000 nM	–
CCOC(=O)c1ccc(-c2nc3sccn3c2-c2ccnc(N[C@@H]3CCCNC3)n2)cc1OCC [Example 128, ethyl 2-ethoxy-4-(5-{2-[(3R)-piperidin-3-ylamino]pyrimidin-4-yl}imidazo[2,1-b][1,3]thiazol-6-yl)benzoate]	–	inhibition at 10 µM (@ 10 uM): 24%
N#Cc1cccc(-c2nc3sccn3c2-c2ccnc(N[C@@H]3CCCN(S(=O)(=O)c4ccc(C(=O)O)cc4)C3)n2)c1 [Example 129]	> 3000 nM	–
CCOC(=O)c1ccc(-c2nc3sccn3c2-c2ccnc(N[C@@H]3CCCN(S(=O)(=O)c4ccc(Cl)cc4)C3)n2)cc1OCC [Example 130, ethyl 4-{5-[2-({(3R)-1-[(4-chlorophenyl)sulfonyl]piperidin-3-yl}amino)pyrimidin-4-yl]imidazo[2,1-b][1,3]thiazol-6-yl}-2-ethoxybenzoate]	1090 nM	–
O=[N+]([O-])c1ccccc1-c1nc2sccn2c1-c1ccnc(N[C@@H]2CCCN(S(=O)(=O)c3ccc(Cl)cc3)C2)n1 [Example 131, N-{(3R)-1-[(4-chlorophenyl)sulfonyl]piperidin-3-yl}-4-[6-(2-nitrophenyl)imidazo[2,1-b][1,3]thiazol-5-yl]pyrimidin-2-amine]	25 nM	–
Nc1ccccc1-c1nc2sccn2c1-c1ccnc(N[C@@H]2CCCN(S(=O)(=O)c3ccc(Cl)cc3)C2)n1 [Example 132, 4-[6-(2-aminophenyl)imidazo[2,1-b][1,3]thiazol-5-yl]-N-{(3R)-1-[(4-chlorophenyl)sulfonyl]piper-idin-3-yl}pyrimidin-2-amine]	444 nM	–
O=C(O)c1ccc(-c2nc3sccn3c2-c2ccnc(N[C@@H]3CCCN(S(=O)(=O)c4ccc(Cl)cc4)C3)n2)cc1O [Example 133, 4-{5-[2-({(3R)-1-[(4-chlorophenyl)sulfonyl]piperidin-3-yl}amino)pyrimidin-4-yl]imidazo[2,1-b][1,3]thiazol-6-yl}-2-hydroxybenzoic acid]	840 nM	–
O=S(=O)(c1ccc(Cl)cc1)N1CCC[C@@H](Nc2nccc(-c3c(-c4ccc(O)c(O)c4)nc4sccn34)n2)C1 [Example 134, 4-{5-[2-({(3R)-1-[(4-chlorophenyl)sulfonyl]piperidin-3-yl}amino)pyrimidin-4-yl]imidazo[2,1-b][1,3]thiazol-6-yl}benzene-1,2-diol]	24 nM	–
